Test results from the supplement of paper PMC11061612.

Legend:
Assay in all cases: Bliss excess, mean over the matrix (fraction); higher = more synergy
[1] = test system: COLO-680N (Esophageal Squamous Cell Carcinoma)
Summary of the method: (§1)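 Cell lines grown in DMEM/F12 or RPMI with 10% FBS were plated in 1536-well plates and held 24 hours at 37°C, 5% CO2 before 72 hours of exposure to two-drug dose matrices, with DMSO typically at 0.2%. CellTiter-Glo 2.0 luminescence gave viability, which was converted to inhibition. Vehicle wells were set to 0 and blank wells to 1. Combination Emax is the second-highest inhibition in the matrix, and Bliss excess is the observed combination effect minus the expected EA + EB − EA·EB, where EA and EB are the single-agent effects.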

[2] = test system: 23132-87 (Gastric Carcinoma)
Summary of the method: as §1

[3] = test system: RERF-LC-Sq1 (Squamous Cell Lung Carcinoma)
Summary of the method: as §1

[4] = test system: LB996-RCC (Kidney Carcinoma)
Summary of the method: as §1

[5] = test system: LN-229 (Glioblastoma)
Summary of the method: as §1

[6] = test system: RERF-GC-1B (Gastric Carcinoma)
Summary of the method: as §1

[7] = test system: VAL (B-Cell Non-Hodgkin's Lymphoma)
Summary of the method: as §1

[8] = test system: NCI-H23 (Lung Adenocarcinoma)
Summary of the method: as §1

[9] = test system: HEC-1 (Endometrial Carcinoma)
Summary of the method: as §1

[10] = test system: GB-1 (Glioblastoma)
Summary of the method: as §1

[11] = test system: CAL-120 (Breast Carcinoma)
Summary of the method: as §1

[12] = test system: HSC-39 (Gastric Carcinoma)
Summary of the method: as §1

[13] = test system: GP5d (Colorectal Carcinoma)
Summary of the method: as §1

[14] = test system: MFE-280 (Endometrial Carcinoma)
Summary of the method: as §1

[15] = test system: IST-MES1 (Mesothelioma)
Summary of the method: as §1

[16] = test system: NCI-H2342 (Lung Adenocarcinoma)
Summary of the method: as §1

[17] = test system: SU-DHL-10 (B-Cell Non-Hodgkin's Lymphoma)
Summary of the method: as §1

[18] = test system: RCM-1 (Colorectal Carcinoma)
Summary of the method: as §1

[19] = test system: OAW-42 (Ovarian Carcinoma)
Summary of the method: as §1

[20] = test system: MKN45 (Gastric Carcinoma)
Summary of the method: as §1

Row | Structure (SMILES) | Bliss excess [1] | Bliss excess [2] | Bliss excess [3] | Bliss excess [4] | Bliss excess [5] | Bliss excess [6] | Bliss excess [7] | Bliss excess [8] | Bliss excess [9] | Bliss excess [10] | Bliss excess [11] | Bliss excess [12] | Bliss excess [13] | Bliss excess [14] | Bliss excess [15] | Bliss excess [16] | Bliss excess [17] | Bliss excess [18] | Bliss excess [19] | Bliss excess [20]
1 | CN(CCO)CC[C@H](CSc1ccccc1)Nc1ccc(S(=O)(=O)NC(=O)c2ccc(N3CCC([C@@H](O)c4ccccc4-c4ccc(Cl)cc4)CC3)cc2)cc1S(=O)(=O)C(F)(F)F [AZD4320] + C=CCn1c(=O)c2cnc(Nc3ccc(N4CCN(C)CC4)cc3)nc2n1-c1cccc(C(C)(C)O)n1 [AZD1775] (first compound max 1 µM, partner max 1 µM) | 0.0065 | 0.072 | -0.0021 | 0.0405 | 0.0438 | 0.0515 | -0.0211 | 0.0364 | 0.0194 | -0.0642 | 0.0158 | 0.0562 | -0.0238 | 0.0823 | -0.0274 | 0 | 0.0069 | -0.0586 | 0.0074 | 
2 | CN(CCO)CC[C@H](CSc1ccccc1)Nc1ccc(S(=O)(=O)NC(=O)c2ccc(N3CCC([C@@H](O)c4ccccc4-c4ccc(Cl)cc4)CC3)cc2)cc1S(=O)(=O)C(F)(F)F [AZD4320] + Cn1cnc2c(F)c(Nc3ccc(Br)cc3Cl)c(C(=O)NOCCO)cc21 [Selumetinib] (first compound max 1 µM, 7x7, partner max 3 µM) | 0.0047 | 0.0543 | 0.0158 | -0.0445 | 0.0585 | 0.022 | 0.0113 | 0.0703 | -0.018 | 0.0313 | 0.0577 | 0.0414 | 0.0908 | -0.0211 | 0.0318 |  | 0.0912 | 0.0333 | -0.0115 | -0.0725
3 | COc1nnc2ccc(N3CCC(c4ccc(OCCN5CCN(C)C(=O)[C@H]5C)cc4)CC3)nn12 [AZD5153] + CN(CC[C@H](CSC1=CC=CC=C1)NC2=C(C=C(C=C2)S(=O)(=O)NC(=O)C3=CC=C(C=C3)N4CCC(CC4)[C@H](C5=CC=CC=C5C6=CC=C(C=C6)Cl)O)S(=O)(=O)C(F)(F)F)CCO [AZD4320] (first compound max 1 µM, 7x7, partner max 1 µM) |  | -0.0551 | 0.0113 | 0.0253 | 0.0357 | 0.014 |  | -0.0027 | 0.0486 | 0.0003 | 0.0415 |  | 0.0199 |  |  |  | -0.0269 |  | 0.0913 | 
4 | Cc1c2c(nn1C)CSCc1cc(n(C)n1)CSc1cc(c3ccccc3c1)OCCCc1c(C(=O)O)n(C)c3c-2c(Cl)ccc13 [AZD5991] + C[C@@H]1COCCN1C2=NC(=NC(=C2)C3(CC3)[S@](=N)(=O)C)C4=C5C=CNC5=NC=C4 [AZD6738] (first compound max 1 µM, 7x7, partner max 10 µM) | 0.0186 | -0.009 | 0.0273 | 0.0301 | 0.0344 |  | -0.0898 | -0.0037 | 0.0258 | 0.0116 | 0.0621 | -0.0026 | 0.002 | 0.0388 |  | 0.0291 | -0.0128 | -0.0371 | 0.0046 | -0.0812
